Test results taken from patent publication US9233905B2, “Oxidation and crystallization process for aromatic carboxylic acid production” (UOP LLC, priority 2012, dated 2016).

Assay: solubility study in acetic acid and ionic liquid solvent
Format: physicochemical
Conditions: ionic liquid solvent compared with acetic acid; FIG. 4
Excerpt: Two samplers were used for different purposes. A custom Titanium sampler was fabricated by Parr Instrument with a 2 μm Titanium filter included to separate solid and liquid phase at operating temperature for studying reaction kinetics. A custom Titanium sampler, larger in size but with no filter attached, was used for a solubility study. For the solubility study, the solvent and solute were loaded in the reactor and heated to the desired temperature, and maintained for a certain time to ensure an equilibrium was established. Afterwards, sufficient time was allowed for the solid to settle before a sample was taken. Solubility was compared to another study that tested terephthalic acid solubility in acetic acid.

Compound | solubility
O=Cc1ccc(C(=O)O)cc1 [4-CBA, 4-carboxybenzaldehyde] | greater solubility in ionic liquid than in acetic acid
O=C(O)c1ccc(C(=O)O)cc1 [terephthalic acid, 1,4-benzenedicarboxylic acid] | greater solubility in ionic liquid than in acetic acid
